Laboratory results published in ChEMBL document CHEMBL1132079, “Combined NK1 and NK2 tachykinin receptor antagonists: synthesis and structure-activity relationships of novel oxazolidine analogues” (Bioorg Med Chem Lett, 1999).
The source made the active and inactive calls. The rule behind the calls is not given here.

Target: T1, Substance-K receptor (Cavia porcellus) (UniProt Q64077)
T1 sequence (whole entry): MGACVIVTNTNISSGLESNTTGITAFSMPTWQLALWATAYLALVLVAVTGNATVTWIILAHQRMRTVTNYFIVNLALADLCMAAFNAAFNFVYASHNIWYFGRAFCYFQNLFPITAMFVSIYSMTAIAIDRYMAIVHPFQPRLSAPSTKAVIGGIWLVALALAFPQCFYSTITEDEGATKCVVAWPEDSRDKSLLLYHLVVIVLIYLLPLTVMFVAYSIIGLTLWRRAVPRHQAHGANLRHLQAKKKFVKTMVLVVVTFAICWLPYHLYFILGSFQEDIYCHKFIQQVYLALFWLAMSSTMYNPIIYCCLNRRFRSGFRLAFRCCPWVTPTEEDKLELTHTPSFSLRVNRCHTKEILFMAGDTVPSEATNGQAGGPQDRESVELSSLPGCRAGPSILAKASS
Assay: Antagonist activity against Neurokinin 2 (NK2) receptor from guinea pig ileum at a concentration of 1 ug/mL
Assay type: functional, tissue-based

Compound | inhibition
NC(=O)C1(c2ccccc2)CCN(CC[C@@]2(c3ccc(Cl)c(Cl)c3)CN(C(=O)c3cc4ccccc4[nH]3)CO2)CC1 | 26%
COc1cc(C(=O)N2CO[C@](CCN3CCC(NC(C)=O)(c4ccccc4)CC3)(c3ccc(Cl)c(Cl)c3)C2)cc(OC)c1OC | 62%
NC(=O)C1(c2ccccc2)CCN(CC[C@@]2(c3ccc(Cl)c(Cl)c3)CN(C(=O)c3ccc(Cl)cc3)CO2)CC1 | 88%
NC(=O)C1(c2ccccc2)CCN(CC[C@@]2(c3ccc(Cl)c(Cl)c3)CN(C(=O)c3cnccn3)CO2)CC1 | 47%
COc1cc(C(=O)N2CO[C@](CCN3CCC(C(=O)Nc4ccccc4)CC3)(c3ccc(Cl)c(Cl)c3)C2)cc(OC)c1OC | 72%
COc1cc(C(=O)N2CO[C@](CCN3CCC(n4c(O)nc5ccccc54)CC3)(c3ccc(Cl)c(Cl)c3)C2)cc(OC)c1OC | 85%
NC(=O)C1(c2ccccc2)CCN(CC[C@@]2(c3ccc(Cl)c(Cl)c3)CN(C(=O)c3ccncc3)CO2)CC1 | 57%
COc1cccc(C(=O)N2CO[C@](CCN3CCC(C(N)=O)(c4ccccc4)CC3)(c3ccc(Cl)c(Cl)c3)C2)c1 | 82%
COc1cc(C(=O)N2CO[C@](CCN3CCC(C(=O)c4ccc(Cl)cc4)CC3)(c3ccc(Cl)c(Cl)c3)C2)cc(OC)c1OC | 54%
COc1cc(C(=O)N2CO[C@](CCN3CCC4(CC3)CN(S(C)(=O)=O)c3ccccc34)(c3ccc(Cl)c(Cl)c3)C2)cc(OC)c1OC | 91%
COc1ccccc1C(=O)N1CO[C@](CCN2CCC(C(N)=O)(c3ccccc3)CC2)(c2ccc(Cl)c(Cl)c2)C1 | 87%
COc1ccc(C(=O)N2CO[C@](CCN3CCC(C(N)=O)(c4ccccc4)CC3)(c3ccc(Cl)c(Cl)c3)C2)c(OC)c1 | 85%
COc1cc(C(=O)N2CO[C@](CCN3CCC(NC(=O)c4ccccc4)CC3)(c3ccc(Cl)c(Cl)c3)C2)cc(OC)c1OC | 44%
COC(=O)c1ccc(C(=O)N2CO[C@](CCN3CCC(C(N)=O)(c4ccccc4)CC3)(c3ccc(Cl)c(Cl)c3)C2)cc1 | 85%
COc1cc(C(=O)N2CO[C@](CCN3CCC4(CC3)CN(Cc3ccccc3)C(=O)O4)(c3ccc(Cl)c(Cl)c3)C2)cc(OC)c1OC | 44%
COc1cccc(OC)c1C(=O)N1CO[C@](CCN2CCC(C(N)=O)(c3ccccc3)CC2)(c2ccc(Cl)c(Cl)c2)C1 | 83%
N#Cc1ccc(C(=O)N2CO[C@](CCN3CCC(C(N)=O)(c4ccccc4)CC3)(c3ccc(Cl)c(Cl)c3)C2)cc1 | 79%
COc1cc(OC)cc(C(=O)N2CO[C@](CCN3CCC(C(N)=O)(c4ccccc4)CC3)(c3ccc(Cl)c(Cl)c3)C2)c1 | 97%
NC(=O)C1(c2ccccc2)CCN(CC[C@@]2(c3ccc(Cl)c(Cl)c3)CN(C(=O)c3ccccc3)CO2)CC1 | 87%
CC(C)Oc1cccc(CC(=O)N2CO[C@](CCN3CCC(C(N)=O)(c4ccccc4)CC3)(c3ccc(Cl)c(Cl)c3)C2)c1 | 18%
Cc1cc(C)cc(C(=O)N2CO[C@](CCN3CCC(C(N)=O)(c4ccccc4)CC3)(c3ccc(Cl)c(Cl)c3)C2)c1 | 90%

Compound | inhibition
COc1cc(C(=O)N2CO[C@](CCN3CCC4(CC3)CN(c3ccccc3)C(=O)O4)(c3ccc(Cl)c(Cl)c3)C2)cc(OC)c1OC | 12%
COc1cc(C(=O)N2CO[C@](CCN3CCC(O)(c4ccccn4)CC3)(c3ccc(Cl)c(Cl)c3)C2)cc(OC)c1OC | 76%
COc1cc(C(=O)N2CO[C@](CCN3CCN(c4ncccn4)CC3)(c3ccc(Cl)c(Cl)c3)C2)cc(OC)c1OC | 48%
COc1ccc(C(=O)N2CO[C@](CCN3CCC(C(N)=O)(c4ccccc4)CC3)(c3ccc(Cl)c(Cl)c3)C2)cc1OC | 88%
COc1cc(C(=O)N2CO[C@](CCN3CCN(c4ccccn4)CC3)(c3ccc(Cl)c(Cl)c3)C2)cc(OC)c1OC | 42%
NC(=O)C1(c2ccccc2)CCN(CC[C@@]2(c3ccc(Cl)c(Cl)c3)CN(C(=O)c3ccc4ccccc4n3)CO2)CC1 | 71%
CC(=O)Nc1ccc(C(=O)N2CO[C@](CCN3CCC(C(N)=O)(c4ccccc4)CC3)(c3ccc(Cl)c(Cl)c3)C2)cc1 | 85%
COc1cc(C(=O)N2CO[C@](CCN3CCC(C(C)=O)(c4ccccc4)CC3)(c3ccc(Cl)c(Cl)c3)C2)cc(OC)c1OC | 57%
COc1cc(C(=O)N2CO[C@](CCN3CCC4(CC3)OCc3ccccc34)(c3ccc(Cl)c(Cl)c3)C2)cc(OC)c1OC | 91%
NC(=O)C1(c2ccccc2)CCN(CC[C@@]2(c3ccc(Cl)c(Cl)c3)CN(C(=O)c3cc4ccccc4o3)CO2)CC1 | 59%
COc1cc(C(=O)N2CO[C@](CCN3CCC(O)(c4cccnc4)CC3)(c3ccc(Cl)c(Cl)c3)C2)cc(OC)c1OC | 100%
COc1cc(CC(=O)N2CO[C@](CCN3CCC(C(N)=O)(c4ccccc4)CC3)(c3ccc(Cl)c(Cl)c3)C2)cc(OC)c1OC | inactive
NC(=O)C1(c2ccccc2)CCN(CC[C@@]2(c3ccc(Cl)c(Cl)c3)CN(C(=O)c3cnc4ccccc4n3)CO2)CC1 | 71%
Cc1ccc(C(=O)N2CO[C@](CCN3CCC(C(N)=O)(c4ccccc4)CC3)(c3ccc(Cl)c(Cl)c3)C2)cc1 | 88%
COc1ccc(S(=O)(=O)N2CO[C@](CCN3CCC(C(N)=O)(c4ccccc4)CC3)(c3ccc(Cl)c(Cl)c3)C2)cc1OC | 10%
NC(=O)C1(c2ccccc2)CCN(CC[C@@]2(c3ccc(Cl)c(Cl)c3)CN(C(=O)c3ccccn3)CO2)CC1 | 73%
NC(=O)C1(c2ccccc2)CCN(CC[C@@]2(c3ccc(Cl)c(Cl)c3)CN(C(=O)c3cccs3)CO2)CC1 | 83%
NC(=O)C1(c2ccccc2)CCN(CC[C@@]2(c3ccc(Cl)c(Cl)c3)CN(C(=O)c3cccnc3)CO2)CC1 | 48%
COc1cc(C(=O)N2CO[C@](CCN3CCC4(CC3)SCc3ccccc34)(c3ccc(Cl)c(Cl)c3)C2)cc(OC)c1OC | 89%
COc1cc(C(=O)N2CO[C@](CCN3CCC(O)(c4ccccc4)CC3)(c3ccc(Cl)c(Cl)c3)C2)cc(OC)c1OC | 58%
COc1cc(C(=O)N2CO[C@](CCN3CCC(C(N)=O)(c4ccccn4)CC3)(c3ccc(Cl)c(Cl)c3)C2)cc(OC)c1OC | 83%

Target: Substance-P receptor (Cavia porcellus) (UniProt P30547)
Assay: Inhibitory activity against Neurokinin 1 (NK1) receptor from guinea pig lung at a concentration of 1 ug/mL

Substance-P receptor (Cavia porcellus), sequence (P30547 whole entry): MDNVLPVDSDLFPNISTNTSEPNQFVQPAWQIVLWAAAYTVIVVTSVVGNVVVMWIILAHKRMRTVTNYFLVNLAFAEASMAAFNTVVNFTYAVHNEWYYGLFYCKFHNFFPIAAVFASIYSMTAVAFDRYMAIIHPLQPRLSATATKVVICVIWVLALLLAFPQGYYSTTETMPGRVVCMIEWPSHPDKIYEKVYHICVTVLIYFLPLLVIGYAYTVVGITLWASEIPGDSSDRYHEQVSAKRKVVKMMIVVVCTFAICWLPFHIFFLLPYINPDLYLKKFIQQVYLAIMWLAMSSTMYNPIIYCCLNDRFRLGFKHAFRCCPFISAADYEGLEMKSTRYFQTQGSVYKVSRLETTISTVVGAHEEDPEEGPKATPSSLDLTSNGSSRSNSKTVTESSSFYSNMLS

Compound | inhibition
NC(=O)C1(c2ccccc2)CCN(CC[C@@]2(c3ccc(Cl)c(Cl)c3)CN(C(=O)c3cc4ccccc4[nH]3)CO2)CC1 | 96%
COc1cc(C(=O)N2CO[C@](CCN3CCC(NC(C)=O)(c4ccccc4)CC3)(c3ccc(Cl)c(Cl)c3)C2)cc(OC)c1OC | 100%
NC(=O)C1(c2ccccc2)CCN(CC[C@@]2(c3ccc(Cl)c(Cl)c3)CN(C(=O)c3ccc(Cl)cc3)CO2)CC1 | 50%
NC(=O)C1(c2ccccc2)CCN(CC[C@@]2(c3ccc(Cl)c(Cl)c3)CN(C(=O)c3cnccn3)CO2)CC1 | 23%
COc1cc(C(=O)N2CO[C@](CCN3CCC(C(=O)Nc4ccccc4)CC3)(c3ccc(Cl)c(Cl)c3)C2)cc(OC)c1OC | 44%
COc1cc(C(=O)N2CO[C@](CCN3CCC(n4c(O)nc5ccccc54)CC3)(c3ccc(Cl)c(Cl)c3)C2)cc(OC)c1OC | 100%
NC(=O)C1(c2ccccc2)CCN(CC[C@@]2(c3ccc(Cl)c(Cl)c3)CN(C(=O)c3ccncc3)CO2)CC1 | 65%
COc1cccc(C(=O)N2CO[C@](CCN3CCC(C(N)=O)(c4ccccc4)CC3)(c3ccc(Cl)c(Cl)c3)C2)c1 | 100%
COc1cc(C(=O)N2CO[C@](CCN3CCC(C(=O)c4ccc(Cl)cc4)CC3)(c3ccc(Cl)c(Cl)c3)C2)cc(OC)c1OC | 97%
COc1cc(C(=O)N2CO[C@](CCN3CCC4(CC3)CN(S(C)(=O)=O)c3ccccc34)(c3ccc(Cl)c(Cl)c3)C2)cc(OC)c1OC | 98%
COc1ccccc1C(=O)N1CO[C@](CCN2CCC(C(N)=O)(c3ccccc3)CC2)(c2ccc(Cl)c(Cl)c2)C1 | 100%
COc1ccc(C(=O)N2CO[C@](CCN3CCC(C(N)=O)(c4ccccc4)CC3)(c3ccc(Cl)c(Cl)c3)C2)c(OC)c1 | 78%
COc1cc(C(=O)N2CO[C@](CCN3CCC(NC(=O)c4ccccc4)CC3)(c3ccc(Cl)c(Cl)c3)C2)cc(OC)c1OC | 89%
COC(=O)c1ccc(C(=O)N2CO[C@](CCN3CCC(C(N)=O)(c4ccccc4)CC3)(c3ccc(Cl)c(Cl)c3)C2)cc1 | 36%
COc1cc(C(=O)N2CO[C@](CCN3CCC4(CC3)CN(Cc3ccccc3)C(=O)O4)(c3ccc(Cl)c(Cl)c3)C2)cc(OC)c1OC | 86%
COc1cccc(OC)c1C(=O)N1CO[C@](CCN2CCC(C(N)=O)(c3ccccc3)CC2)(c2ccc(Cl)c(Cl)c2)C1 | 74%
N#Cc1ccc(C(=O)N2CO[C@](CCN3CCC(C(N)=O)(c4ccccc4)CC3)(c3ccc(Cl)c(Cl)c3)C2)cc1 | 29%
COc1cc(OC)cc(C(=O)N2CO[C@](CCN3CCC(C(N)=O)(c4ccccc4)CC3)(c3ccc(Cl)c(Cl)c3)C2)c1 | 93%
NC(=O)C1(c2ccccc2)CCN(CC[C@@]2(c3ccc(Cl)c(Cl)c3)CN(C(=O)c3ccccc3)CO2)CC1 | 75%
CC(C)Oc1cccc(CC(=O)N2CO[C@](CCN3CCC(C(N)=O)(c4ccccc4)CC3)(c3ccc(Cl)c(Cl)c3)C2)c1 | 59%
Cc1cc(C)cc(C(=O)N2CO[C@](CCN3CCC(C(N)=O)(c4ccccc4)CC3)(c3ccc(Cl)c(Cl)c3)C2)c1 | 100%

Compound | inhibition
COc1cc(C(=O)N2CO[C@](CCN3CCC4(CC3)CN(c3ccccc3)C(=O)O4)(c3ccc(Cl)c(Cl)c3)C2)cc(OC)c1OC | 86%
COc1cc(C(=O)N2CO[C@](CCN3CCC(O)(c4ccccn4)CC3)(c3ccc(Cl)c(Cl)c3)C2)cc(OC)c1OC | 100%
COc1cc(C(=O)N2CO[C@](CCN3CCN(c4ncccn4)CC3)(c3ccc(Cl)c(Cl)c3)C2)cc(OC)c1OC | 100%
COc1ccc(C(=O)N2CO[C@](CCN3CCC(C(N)=O)(c4ccccc4)CC3)(c3ccc(Cl)c(Cl)c3)C2)cc1OC | 93%
COc1cc(C(=O)N2CO[C@](CCN3CCN(c4ccccn4)CC3)(c3ccc(Cl)c(Cl)c3)C2)cc(OC)c1OC | 100%
NC(=O)C1(c2ccccc2)CCN(CC[C@@]2(c3ccc(Cl)c(Cl)c3)CN(C(=O)c3ccc4ccccc4n3)CO2)CC1 | inactive
CC(=O)Nc1ccc(C(=O)N2CO[C@](CCN3CCC(C(N)=O)(c4ccccc4)CC3)(c3ccc(Cl)c(Cl)c3)C2)cc1 | 9%
COc1cc(C(=O)N2CO[C@](CCN3CCC(C(C)=O)(c4ccccc4)CC3)(c3ccc(Cl)c(Cl)c3)C2)cc(OC)c1OC | 83%
COc1cc(C(=O)N2CO[C@](CCN3CCC4(CC3)OCc3ccccc34)(c3ccc(Cl)c(Cl)c3)C2)cc(OC)c1OC | 98%
NC(=O)C1(c2ccccc2)CCN(CC[C@@]2(c3ccc(Cl)c(Cl)c3)CN(C(=O)c3cc4ccccc4o3)CO2)CC1 | inactive
COc1cc(C(=O)N2CO[C@](CCN3CCC(O)(c4cccnc4)CC3)(c3ccc(Cl)c(Cl)c3)C2)cc(OC)c1OC | 100%
COc1cc(CC(=O)N2CO[C@](CCN3CCC(C(N)=O)(c4ccccc4)CC3)(c3ccc(Cl)c(Cl)c3)C2)cc(OC)c1OC | 87%
NC(=O)C1(c2ccccc2)CCN(CC[C@@]2(c3ccc(Cl)c(Cl)c3)CN(C(=O)c3cnc4ccccc4n3)CO2)CC1 | 38%
Cc1ccc(C(=O)N2CO[C@](CCN3CCC(C(N)=O)(c4ccccc4)CC3)(c3ccc(Cl)c(Cl)c3)C2)cc1 | 56%
COc1ccc(S(=O)(=O)N2CO[C@](CCN3CCC(C(N)=O)(c4ccccc4)CC3)(c3ccc(Cl)c(Cl)c3)C2)cc1OC | 71%
NC(=O)C1(c2ccccc2)CCN(CC[C@@]2(c3ccc(Cl)c(Cl)c3)CN(C(=O)c3ccccn3)CO2)CC1 | 39%
NC(=O)C1(c2ccccc2)CCN(CC[C@@]2(c3ccc(Cl)c(Cl)c3)CN(C(=O)c3cccs3)CO2)CC1 | 33%
NC(=O)C1(c2ccccc2)CCN(CC[C@@]2(c3ccc(Cl)c(Cl)c3)CN(C(=O)c3cccnc3)CO2)CC1 | 38%
COc1cc(C(=O)N2CO[C@](CCN3CCC4(CC3)SCc3ccccc34)(c3ccc(Cl)c(Cl)c3)C2)cc(OC)c1OC | 100%
COc1cc(C(=O)N2CO[C@](CCN3CCC(O)(c4ccccc4)CC3)(c3ccc(Cl)c(Cl)c3)C2)cc(OC)c1OC | 100%
COc1cc(C(=O)N2CO[C@](CCN3CCC(C(N)=O)(c4ccccn4)CC3)(c3ccc(Cl)c(Cl)c3)C2)cc(OC)c1OC | 95%
